How the values were obtained:
[1] = system: TNF-α; experiment: TNF-α production inhibition in macrophages derived from mouse abdomen (IFN-γ/SAC stimulation, ELISA); type: cell-based; conditions: Macrophage; mouse (Balb/c) abdominal macrophages, 100 ng/mL mouse IFN-γ + 0.05% SAC, overnight; TFA salts tested where prepared as such; read-out: TNF-α-Inhibitory Activity IC50
Description: (§1) One milliliter each of a 3% (w/v) thioglycolate solution was intraperitoneally administered to mice (female Balb/c mice), the abdominal cells of each mouse were recovered after 5 or 6 days from the administration of the thioglycolate solution and the adhesive cells were collected and used in the exaluation procedures. To a culture medium containing such adhesive cells, there were added 100 ng/mL of mouse interferon-γ and a 0.05% (v/v) liquid containing killed cells derived from Staphylococcus aureus Cowan I strain (SAC) and a candidate compound and then the mixture was cultivated overnight. After the completion of the cultivation, the survival ratios were determined, there were quantitatively determined the quantities of IL-12p70 (the complex of IL-12p35 and p40) and IL-12p40 or TNF-α according to the ELISA assays while making use of the recovered supernatant of the culture medium and the 50% production-inhibitory concentration (IC50) was calculated for each case (see Table 1 and Tables 1-9 for IL-12p70 and TNF-α and Tables 1 to 10 for IL-12p40).

[2] = system: IL-12p70 (the complex of IL-12p35 and p40); experiment: IL-12p70 production inhibition in macrophages derived from mouse abdomen (IFN-γ/SAC stimulation, ELISA); type: cell-based; conditions: Macrophage; mouse (Balb/c) abdominal macrophages, 100 ng/mL mouse IFN-γ + 0.05% SAC, overnight; TFA salts tested where prepared as such; read-out: IL-12p70-Inhibitory Activity IC50
Description: as §1

Compound | IC50 [1] | IC50 [2]
COc1ccc(-c2cc3nc(N/N=C/c4cccc(C)c4)cc(N4CCOCC4)n3n2)cc1 [Compound 15, N-{2-(4-methoxy-phenyl)-7-morpholin-4-yl-pyrazolo[1,5-a]pyrimidin-5-yl}-N′-(3-methyl-benzylidene)-hydrazine] | > 10000 nM | 11 nM
Cc1cccc(/C=N/Nc2cc(N3CCOCC3)n3nc(-c4ccc(Br)cc4)cc3n2)c1 [Compound 16, N-{2-(4-bromo-phenyl)-7-morpholin-4-yl-pyrazolo[1,5-a]-pyrimidin-5-yl}-N′-(3-methyl-benzylidene)-hydrazine] | > 10000 nM | 18 nM
Cc1cccc(/C=N/Nc2cc(N3CCOCC3)n3nc(-c4ccc(N5CCOCC5)cc4)cc3n2)c1 [Compound 17, N-(3-methyl-benzylidene)-N′-{7-morpholin-4-yl-2-(4-morpholin-4-yl-phenyl)-pyrazolo[1,5-a]pyrimidin-5-yl}-hydrazine] | > 10000 nM | 4 nM
Cc1cccc(/C=N/Nc2cc(N3CCOCC3)n3nc(-c4cccs4)cc3n2)c1 [Compound 18, N-(3-methyl-benzylidene)-N′-(7-morpholin-4-yl-2-thiophen-2-yl-pyrazolo[1,5-a]pyrimidin-5-yl)-hydrazine] | > 10000 nM | 11 nM
Cc1cccc(/C=N/Nc2cc(N3CCOCC3)n3nc(-c4ccc(N5CCN(C(=O)OC(C)(C)C)CC5)cc4)cc3n2)c1 [Compound 19, N-[2-{4-(4-t-butoxycarbonyl-piperazin-1-yl)-phenyl}-7-morpholin-4-yl-pyrazolo[1,5-a]pyrimidin-5-yl]-N′-(3-methyl-benzylidene)-hydrazine] | > 10000 nM | 60 nM
Cc1cccc(/C=N/Nc2cc(N3CCOCC3)n3nc(-c4ccccn4)cc3n2)c1 [Compound 20, N-(3-methyl-benzylidene)-N′-(7-morpholin-4-yl-2-pyridin-2-yl-pyrazolo[1,5-a]pyrimidin-5-yl)-hydrazine] | > 10000 nM | 8 nM
Cc1cccc(/C=N/Nc2cc(N3CCOCC3)n3nc(-c4ccc(N5CCNCC5)cc4)cc3n2)c1 [Compound 21, N-(3-methyl-benzylidene)-N′-{7-morpholin-4-yl-2-(4-piperazin-1-yl-phenyl)-pyrazolo[1,5-a]pyrimidin-5-yl}-hydrazine] | > 10000 nM | 22 nM
CC(=O)N1CCN(c2ccc(-c3cc4nc(N/N=C/c5cccc(C)c5)cc(N5CCOCC5)n4n3)cc2)CC1 [Compound 22, N-[2-{4-(4-acetyl-piperazin-1-yl)-phenyl}-7-morpholin-4-yl-pyrazolo[1,5-a]pyrimidin-5-yl]-N′-(3-methyl-benzylidene)-hydrazine] | > 10000 nM | 5 nM
CCN(CC)c1ccc(-c2cc3nc(N/N=C/c4cccc(C)c4)cc(N4CCOCC4)n3n2)cc1 [Compound 23, N-{2-(4-diethyl-amino-phenyl)-7-morpholin-4-yl-pyrazolo-[1,5-a]pyrimidin-5-yl}-N′-(3-methyl-benzylidene)-hydrazine] | > 10000 nM | 14 nM
COCCNc1ccc(-c2cc3nc(N/N=C/c4cccc(C)c4)cc(N4CCOCC4)n3n2)cc1 [Compound 24, N-[2-{4-(2-methoxy-ethyl-amino)-phenyl}-7-morpholin-4-yl-pyrazolo[1,5-a]pyrimidin-5-yl]-N′-(3-methyl-benzylidene)-hydrazine] | > 10000 nM | 6 nM
COc1cccc(/C=N/Nc2cc(N3CCOCC3)n3nc(-c4ccccc4)cc3n2)c1 [Compound 29, N-(3-methoxy-benzylidene)-N′-(7-morpholin-4-yl-2-phenyl-pyrazolo[1,5-a]pyrimidin-5-yl)-hydrazine] | > 10000 nM | 40 nM
CCCCC(=O)N1CCN(c2ccc(-c3cc4nc(N/N=C/c5cccc(C)c5)cc(N5CCOCC5)n4n3)cc2)CC1 [Compound 31, N-(3-methyl-benzylidene)-N′-{7-morpholin-4-yl-2-[4-(1-oxo-pentan-1-yl)piperazin-1-yl-phenyl]-pyrazolo[1,5-a]pyrimidin-5-yl}-hydrazine] | > 10000 nM | 18 nM
